Data reported in US20250161235A1, “STRESS TEST AND TREATMENT OF CHRONIC KIDNEY DISEASE” (Renibus Therapeutics, Inc., priority 2020, published 2025).
Entries after “also recorded” stand apart in the source; their conditions may differ.

Key:
Assay type in all cases: in vivo, humans
[1] = Estimated glomerular filtration rate after administration of 90 mg tin protoporphyrin; details: mean ± 1 SD
[2] = Urine biomarkers of kidney injury after administration of 90 mg tin protoporphyrin
[3] = tested on: HO-1; experiment: Plasma HO-1 levels following SnPP injection
Experimental: Plasma HO-1 levels were measured at baseline and from 1-4 days following 9, 27, or 90 mg SnPP injection. Time and dose dependent increases were observed (mean values/95% confidence intervals depicted).
The plasma HO-1 levels rose following SnPP injection in stage 3 CKD ([…]) and stage 4 CKD ([…]) participants as shown in FIG. 2. Plasma HO-1 levels were measured at baseline and from 1-4 days following 27 mg or 90 mg SnPP injection. […] P<0.001, all in-group comparisons; ANOVA, repeated measures. The mean values/95% confidence intervals are depicted.
(§1) Baseline and maximal (peak) plasma anti-oxidant protein concentrations, as generated with the highest test dose of SnPP (90 mg). CKD=CKD 3 and CKD 4 groups combined. […] The values presented are means and 95% confidence intervals. Please see the figures for change of values over time and statistics by ANOVA for repeated measures. […] The timing of the peak values were 4 days, 12 hrs, 12 hrs and 4 hrs for HO-1, ferritin, p21, and NQO1, respectively.

[4] = tested on: ferritin; experiment: Plasma ferritin levels following SnPP injection
Experimental: Plasma ferritin levels were measured at baseline and 24+48 hrs following 90 mg SnPP injection in healthy volunteers and in CKD3/CKD4 participants. […] Means/95% confidence intervals are depicted.
as §1

[5] = tested on: NQO1; experiment: Plasma and urinary NQO1 responses to 90 mg SnPP infusion
Experimental: Values are means/95% confidence intervals; urine values are after log base 10 conversion; statistics by ANOVA repeated measures, in-group comparisons.
as §1

[6] = tested on: p21; experiment: Plasma p21 concentrations following SnPP injection
Experimental: There were marked variations in p21 values between participants, as reflected by large standard deviations (SDs: numbers in parentheses that appear at the bottom of the graph). (HVs=healthy volunteers; BL=baseline).
as §1

[7] = 90 mg SnPP, healthy volunteers and CKD combined

eGFR ([1]; CKD3, Day 2 post SnPP 90 mg): 50 ± 6 ml/min/1.73 m^2 | eGFR ([1]; CKD3, Day 4 post SnPP 90 mg): 47 ± 6 ml/min/1.73 m^2 | eGFR ([1]; CKD4, Day 2 post SnPP 90 mg): 23 ± 5 ml/min/1.73 m^2 | eGFR ([1]; CKD4, Day 4 post SnPP 90 mg): 22 ± 4 ml/min/1.73 m^2 | eGFR ([1]; Healthy Volunteers, Day 2 post SnPP 90 mg): 87 ± 5 ml/min/1.73 m^2 | eGFR ([1]; Healthy Volunteers, Day 4 post SnPP 90 mg): 88 ± 4 ml/min/1.73 m^2
Compound: C=Cc1c2[n-]c(c1C)/C=c1\[n-]/c(c(C)c1C=C)=C\c1[n-]c(c(CCC(=O)O)c1C)/C=c1\[n-]c(c(C)c1CCC(=O)O)=C2.[Sn+4] [SnPP, tin protoporphyrin]
urine Cystatin C ([2]; CKD 3, Day 1, mean ± 1 SD): 26.8 ± 12.9 ng/mg Cr | urine KIM-1 ([2]; CKD 3, Day 1, mean ± 1 SD): 0.8 ± 0.2 ng/mg Cr | urine NAG ([2]; CKD 3, Day 1, mean ± 1 SD): 5.66 ± 3.44 mU/mg Cr | urine NGAL ([2]; CKD 3, Day 1, mean ± 1 SD): 46.5 ± 35.3 ng/mg Cr | urine Cystatin C ([2]; CKD 3, Day 2, mean ± 1 SD): 32.2 ± 9.8 ng/mg Cr | urine KIM-1 ([2]; CKD 3, Day 2, mean ± 1 SD): 1.5 ± 0.6 ng/mg Cr | urine NAG ([2]; CKD 3, Day 2, mean ± 1 SD): 8.2 ± 3.44 mU/mg Cr | urine NGAL ([2]; CKD 3, Day 2, mean ± 1 SD): 35.8 ± 23.2 ng/mg Cr | urine Cystatin C ([2]; CKD 3, Day 3, mean ± 1 SD): 34.0 ± 9.4 ng/mg Cr | urine KIM-1 ([2]; CKD 3, Day 3, mean ± 1 SD): 1.4 ± 0.6 ng/mg Cr | urine NAG ([2]; CKD 3, Day 3, mean ± 1 SD): 6.5 ± 1.7 mU/mg Cr | urine NGAL ([2]; CKD 3, Day 3, mean ± 1 SD): 49.8 ± 39.7 ng/mg Cr | urine Cystatin C ([2]; CKD 3, Day 4, mean ± 1 SD): 33.2 ± 33.2 ng/mg Cr | urine KIM-1 ([2]; CKD 3, Day 4, mean ± 1 SD): 0.9 ± 0.2 ng/mg Cr | urine NAG ([2]; CKD 3, Day 4, mean ± 1 SD): 5.9 ± 2.1 mU/mg Cr | urine NGAL ([2]; CKD 3, Day 4, mean ± 1 SD): 42.6 ± 51.7 ng/mg Cr | urine Cystatin C ([2]; CKD 4, Day 1, mean ± 1 SD): 332 ± 519 ng/mg Cr | urine KIM-1 ([2]; CKD 4, Day 1, mean ± 1 SD): 0.8 ± 1.0 ng/mg Cr | urine NAG ([2]; CKD 4, Day 1, mean ± 1 SD): 12.5 ± 11.34 mU/mg Cr | urine NGAL ([2]; CKD 4, Day 1, mean ± 1 SD): 58.0 ± 79.1 ng/mg Cr | urine Cystatin C ([2]; CKD 4, Day 2, mean ± 1 SD): 638 ± 965 ng/mg Cr | urine KIM-1 ([2]; CKD 4, Day 2, mean ± 1 SD): 1.2 ± 1.0 ng/mg Cr | urine NAG ([2]; CKD 4, Day 2, mean ± 1 SD): 10.6 ± 7.5 mU/mg Cr | urine NGAL ([2]; CKD 4, Day 2, mean ± 1 SD): 64.8 ± 91.0 ng/mg Cr | urine Cystatin C ([2]; CKD 4, Day 3, mean ± 1 SD): 186 ± 213 ng/mg Cr | urine KIM-1 ([2]; CKD 4, Day 3, mean ± 1 SD): 1.2 ± 1.0 ng/mg Cr | urine NAG ([2]; CKD 4, Day 3, mean ± 1 SD): 10.5 ± 5.6 mU/mg Cr | urine NGAL ([2]; CKD 4, Day 3, mean ± 1 SD): 47.3 ± 60.2 ng/mg Cr | urine Cystatin C ([2]; CKD 4, Day 4, mean ± 1 SD): 207 ± 238 ng/mg Cr | urine KIM-1 ([2]; CKD 4, Day 4, mean ± 1 SD): 1.0 ± 0.8 ng/mg Cr | urine NAG ([2]; CKD 4, Day 4, mean ± 1 SD): 6.2 ± 3.4 mU/mg Cr | urine NGAL ([2]; CKD 4, Day 4, mean ± 1 SD): 48.0 ± 49.5 ng/mg Cr | urine Cystatin C ([2]; HVs, Day 1, mean ± 1 SD): 32.1 ± 15.1 ng/mg Cr | urine KIM-1 ([2]; HVs, Day 1, mean ± 1 SD): 0.7 ± 0.5 ng/mg Cr | urine NGAL ([2]; HVs, Day 1, mean ± 1 SD): 21.1 ± 28.7 ng/mg Cr | urine Cystatin C ([2]; HVs, Day 2, mean ± 1 SD): 34.8 ± 7.2 ng/mg Cr | urine KIM-1 ([2]; HVs, Day 2, mean ± 1 SD): 0.8 ± 0.7 ng/mg Cr | urine NAG ([2]; HVs, Day 2, mean ± 1 SD): 3.16 ± 1.16 mU/mg Cr | urine NGAL ([2]; HVs, Day 2, mean ± 1 SD): 14.8 ± 13.1 ng/mg Cr | urine Cystatin C ([2]; HVs, Day 3, mean ± 1 SD): 39.6 ± 9.4 ng/mg Cr | urine KIM-1 ([2]; HVs, Day 3, mean ± 1 SD): 0.7 ± 0.4 ng/mg Cr | urine NAG ([2]; HVs, Day 3, mean ± 1 SD): 2.51 ± 0.64 mU/mg Cr | urine NGAL ([2]; HVs, Day 3, mean ± 1 SD): 14.0 ± 8.7 ng/mg Cr | urine Cystatin C ([2]; HVs, Day 4, mean ± 1 SD): 40.4 ± 9.3 ng/mg Cr | urine KIM-1 ([2]; HVs, Day 4, mean ± 1 SD): 0.6 ± 0.4 ng/mg Cr | urine NAG ([2]; HVs, Day 4, mean ± 1 SD): 2.66 ± 0.8 mU/mg Cr | urine NGAL ([2]; HVs, Day 4, mean ± 1 SD): 10.2 ± 5.6 ng/mg Cr | timing of the peak plasma value, HO-1 ([3]; 90 mg SnPP): 4 days | peak plasma HO-1 value vs baseline [3, 7]: significantly higher than baseline values | plasma HO-1 levels ([3]; healthy volunteers, baseline and 1-4 days following 9, 27, or 90 mg SnPP injection): rise in a dose dependent fashion; also recorded: rose in a dose dependent fashion | plasma HO-1 levels ([3]; stage 3 CKD and stage 4 CKD participants, 1-4 days following 27 mg or 90 mg SnPP injection): rise and Time and dose dependent HO-1 increases | timing of the peak plasma value, ferritin ([4]; 90 mg SnPP): 12 h | plasma ferritin increases over baseline, CKD vs healthy volunteer groups ([4]; 90 mg SnPP injection): comparable | peak plasma ferritin value vs baseline [4, 7]: significantly higher than baseline values | plasma ferritin levels ([4]; baseline and 24+48 hrs following 90 mg SnPP injection, healthy volunteers and CKD3/CKD4): increase; also recorded: significant plasma ferritin increases | timing of the peak plasma value, NQO1 ([5]; 90 mg SnPP): 4 h | peak plasma NQO1 value vs baseline [5, 7]: significantly higher than baseline values | plasma NQO1 ([5]; healthy volunteer and CKD participants, 90 mg SnPP injection): acute, near identical increases | urinary NQO1/creatinine levels ([5]; healthy volunteers and combined CKD participants, 72 hr observation period, 90 mg SnPP): significant, and progressive increases | p21 response, CKD group compared to healthy volunteer group ([6]; 90 mg SnPP): significantly blunted p21 response | timing of the peak plasma value, p21 ([6]; 90 mg SnPP): 12 h | peak plasma p21 value vs baseline [6, 7]: significantly higher than baseline values | plasma p21 fold increase over baseline (mean) ([6]; CKD group (combined)): 0.51 | plasma p21 ([6]; healthy volunteer and CKD participants, 12 and 24 hrs post SnPP injection): plasma p21 increases | plasma p21 fold increase over baseline (mean) ([6]; healthy volunteer group): 2.65
